{
  "source": "patent US7018992B2",
  "about": "“Hormone composition” (Novo Nordisk A/S, priority 2000, dated 2006)",
  "key": {"[1]": {"test_system": "superficial urethral cells", "experiment": "Urethral cytology, percentage of superficial cells, Example 3", "format": "in vivo, postmenopausal women", "procedure": "(§1) Efficacy was measured with composite scores of vaginal symptoms (dryness, soreness, and irritation) and vaginal health (secretions, epithelial integrity, surface thickness, and pH). Vaginal and urethral cytology analyses were also performed, and the vaginal maturation value was determined. Safety assessments included endometrial biopsies.\n(§2) All vaginal tablets were identical in appearance. Patients inserted 1 tablet daily for 14 days. Thereafter, patients inserted 1 tablet twice per week (Sunday and Thursday) for the remainder of the trial. Patients were to insert the tablets at the same time each day (preferably at bedtime). Patients were evaluated for efficacy and safety at Week—4 (screening), Week 0 (baseline), and Weeks 2, 7, and 12.\n(§3) Vaginal and urethral cell samples were harvested and analyzed by independent cytologists to determine the percentages of parabasal, intermediate, and superficial cells. Maturation values were calculated according to the following equation: maturation value=1.0×[superficial cells, %]+0.5×[intermediate cells, %] Endometrial biopsies were performed at the end of the study in patients with intact uteri. The number of patients with abnormal biopsies was compared between treatment groups."}, "[2]": {"test_system": "superficial vaginal cells", "experiment": "Vaginal cytology, percentage of superficial cells, Example 3", "format": "in vivo, postmenopausal women", "procedure": "as §1, §2, §3"}, "[3]": {"test_system": "vaginal mucosal cells", "experiment": "Maturation value of vaginal mucosal cells, Example 2", "format": "in vivo, postmenopausal women", "procedure": "(§4) Maturation values of vaginal mucosal cells were assessed as an indicator of changes in the condition of the vaginal mucosa in response to treatment.\nAfter the screening visit, patients received no study treatment during the 4-week run-in period prior to the baseline visit. […] The vaginal tablets were identical in appearance. Patients inserted 1 tablet intravaginally, once daily for the initial 2 weeks of the study and then twice per week (Sunday and Thursday) for the remaining 10 weeks. Patients were instructed to use their medication at a consistent time each day, preferably in the morning.\n(§5) Upon presentation to the clinic for each visit, a vaginal cytology specimen was obtained. Patients then inserted the tablets. […] The blood samples obtained at 30 minutes before insertion, and at 6, 12, and 24 hours after insertion were also used to determine the FSH concentration via immunoradiometric assay.\nThe maturation value of vaginal mucosal cells was calculated from the percentages of parabasal, intermediate, and superficial cells according to the following equation: maturation value=0×[parabasal cells, %]+0.5×[intermediate cells, %]+1.0×[superficial cells, %]"}, "[4]": {"test_system": "postmenopausal women with atrophic vaginitis", "experiment": "Patients with vaginal pH values below 5.5, Example 3", "format": "in vivo", "procedure": "as §1, §2\nInvestigators used a severity scale of none, mild, moderate, or severe to assess vaginal health characteristics (secretions, epithelial integrity, surface thickness, color, and pH). Severity categories were assigned ascending scores from 0 (none) to 3 (severe) for analysis. To avoid multiple endpoint issues, composite scores were defined. A composite score for vaginal health was defined as the average of the individual vaginal health characteristic scores. The composite score and the change from baseline for the composite score were examined at each time point. Differences within and between treatment groups were analyzed using an analysis of variance (ANOVA)."}, "[5]": {"test_system": "endometrium", "experiment": "Endometrial biopsy at end of study, Example 3", "format": "in vivo, postmenopausal women", "procedure": "as §1, §2, §3"}, "[6]": {"test_system": "vaginal cells", "experiment": "Vaginal maturation value, Example 3", "format": "in vivo, postmenopausal women", "conditions": "25 or 10 μg E2 (active treatment groups), Week 12", "procedure": "as §1, §2, §3"}, "[7]": {"test_system": "follicle stimulating hormone (FSH)", "experiment": "Serum FSH concentration (immunoradiometric assay), Example 2", "format": "in vivo, postmenopausal women", "conditions": "25 μg E2, Week 12", "procedure": "as §4, §5\nData for area under the curve and maximal concentration were converted to a logarithmic scale, and changes from first dose (at the baseline visit) in the logarithmic values were estimated using 95% confidence intervals derived from paired t-tests. […] Differences within treatment groups in FSH concentration were determined using the Wilcoxon signed rank test based on changes from baseline in mean concentrations at weeks 2 and 12. Mean concentrations were defined as the average concentrations obtained at 30 minutes before tablet insertion and 6, 12, and 24 hours after insertion."}, "[8]": {"test_system": "superficial vaginal and urethral cells", "experiment": "Subjects by percentages of both superficial vaginal and urethral cells, Example 3", "format": "in vivo, postmenopausal women", "procedure": "as §2, §3"}},
  "note": "Marks after values point to notes of the source that are not given here.",
  "data": [
    {"smiles": "C[C@]12CC[C@@H]3c4ccc(O)cc4CC[C@H]3[C@@H]1CC[C@@H]2O", "note": "[E2, 17β-estradiol]", "values": [
      {"measurement": "Mean percentage of superficial urethral cells", "setting": "[1]; 10 μg E2, Week 0", "result": 2.5, "unit": "%"},
      {"measurement": "Mean change from baseline in percentage of superficial urethral cells", "setting": "[1]; 10 μg E2, Week 12", "result": 6.8, "unit": "%"},
      {"measurement": "Mean percentage of superficial urethral cells", "setting": "[1]; 10 μg E2, Week 12", "result": 9.5, "unit": "%"},
      {"measurement": "Mean percentage of superficial urethral cells", "setting": "[1]; 25 μg E2, Week 0", "result": 3.2, "unit": "%"},
      {"measurement": "Mean change from baseline in percentage of superficial urethral cells", "setting": "[1]; 25 μg E2, Week 12", "result": 7.5, "unit": "%"},
      {"measurement": "Mean percentage of superficial urethral cells", "setting": "[1]; 25 μg E2, Week 12", "result": 11.2, "unit": "%"},
      {"measurement": "Mean percentage of superficial vaginal cells", "setting": "[2]; 10 μg E2, Week 0", "result": 3.1, "unit": "%"},
      {"measurement": "Mean change from baseline in percentage of superficial vaginal cells", "setting": "[2]; 10 μg E2, Week 2", "result": "25.0^a %"},
      {"measurement": "Mean percentage of superficial vaginal cells", "setting": "[2]; 25 μg E2, Week 0", "result": 4.0, "unit": "%"},
      {"measurement": "Mean maturation value", "setting": "[3]; 10 μg E2, Week 0 (baseline), mean ± SD", "result": 51.0},
      {"measurement": "Number of patients with increases in maturation values from baseline", "setting": "[3]; 10 μg E2, Week 12", "result": 14, "unit": "patients"},
      {"measurement": "Number of patients with increases in maturation values from baseline", "setting": "[3]; 25 μg E2, Week 12", "result": 13, "unit": "patients"},
      {"measurement": "Mean change from baseline in maturation value", "setting": "[3]; 25 μg E2, Week 12, mean ± SD, P ≦ .01", "result": "7.0 ± 8.7^b"},
      {"measurement": "Number of patients with vaginal pH values below 5.5", "setting": "[4]; 10 μg E2, Week 0", "result": "27/89"},
      {"measurement": "Number of patients with vaginal pH values below 5.5", "setting": "[4]; 10 μg E2, Week 2", "result": "67/84"},
      {"measurement": "Number of patients with vaginal pH values below 5.5", "setting": "[4]; 10 μg E2, Week 7", "result": "57/80"},
      {"measurement": "Number of patients with vaginal pH values below 5.5", "setting": "[4]; 10 μg E2, Week 12", "result": "54/71"},
      {"measurement": "Number of patients with vaginal pH values below 5.5", "setting": "[4]; 25 μg E2, Week 0", "result": "31/90"},
      {"measurement": "Number of patients with vaginal pH values below 5.5", "setting": "[4]; 25 μg E2, Week 2", "result": "64/87"},
      {"measurement": "Number of patients with vaginal pH values below 5.5", "setting": "[4]; 25 μg E2, Week 7", "result": "71/83"},
      {"measurement": "Percentage of patients with vaginal pH values below 5.5", "setting": "[4]; 25 μg E2, Week 7", "result": 85.5, "unit": "%"},
      {"measurement": "Number of patients with vaginal pH values below 5.5", "setting": "[4]; 25 μg E2, Week 12", "result": "63/79"},
      {"measurement": "Percentage of patients with vaginal pH values below 5.5", "setting": "[4]; 25 or 10 μg E2 (active treatment groups), Week 12", "result": 75, "unit": "%"},
      {"measurement": "Endometrial biopsy result Abnormal (hyperplasia or carcinoma), number of patients", "setting": "[5]; 10 μg E2, Week 12, N = 32", "result": 0},
      {"measurement": "Endometrial biopsy result Abnormal (hyperplasia or carcinoma), percentage of patients", "setting": "[5]; 10 μg E2, Week 12, N = 32", "result": 0.0, "unit": "%"},
      {"measurement": "Endometrial biopsy result Abnormal (hyperplasia or carcinoma), percentage of patients", "setting": "[5]; 25 μg E2, Week 12, N = 32", "result": 3.1, "unit": "%"},
      {"measurement": "Maturation value", "setting": "[6]", "result": "approximately 60%"},
      {"measurement": "Number of patients with mean FSH concentrations below 35", "setting": "[7]", "result": 3, "unit": "patients"},
      {"measurement": "Number of subjects with both superficial vaginal and urethral cells less than or equal to 5%", "setting": "[8]; 10 μg E2, Week 0", "result": 53, "unit": "subjects"},
      {"measurement": "Number of subjects with increases in percentages of both superficial vaginal and urethral cells", "setting": "[8]; 10 μg E2, Week 12", "result": 44, "unit": "subjects"},
      {"measurement": "Number of subjects with both superficial vaginal and urethral cells less than or equal to 5%", "setting": "[8]; 25 μg E2, Week 0", "result": 57, "unit": "subjects"},
      {"measurement": "Number of subjects with increases in percentages of both superficial vaginal and urethral cells", "setting": "[8]; 25 μg E2, Week 12", "result": 52, "unit": "subjects"}
    ]}
  ]
}
